{"source": "patent US20070166547A1", "about": "“Use of a layer consisting of hydrophobic linear, or two-dimensional polycyclic aromatics as a barrier layer or an encapsulation and electric components constructed with a layer of this type and comprising organic polymers” (priority 2003, published 2007)", "key": {"[1]": {"test_system": "embyronic fibroblasts of mouse NIH-3T3", "test": "Endocellular pHi of fibroblasts by microspectrofluorimetry (FDA, BCECF-AM)", "assay_type": "cell-based", "details": "10 mkM in medium with serum", "experimental": "The effect of the compounds according to the invention on the endocellular pH, embyronic fibroblasts of mouse NIH-3T3 supplied by the All-Russian Collection of Cellular Cultures of the Institute of Cytology of the Russian Academy of Sciences St. Petersburg was investigated. The cells were grown in the DMEM (Sigma) medium containing 2.2 g/l of sodium bicarbonate with addition of 80.0 mkg/ml of gentamicin and 10.0% embryonal veal serum at a temperature of 37° C. in an atmosphere containing 5.0% of carbon dioxide. For these experiments use was also made of a medium buffer with 5.0 mM of HEPES and 15.0 mM of sodium bicarbonate without serum or with addition of 5.0% serum. The cells were calculated with the help of a hemocytometer. A share of the dead cells was determined by colouring trypan blue.\nThe measurements of the endocellular pHi were carried out with the help of colorants FDA (Sigma) and BCECF-AM (Calbiochem) on a microspectrofluorimeter by a standard technique (Koshevoy Yu. V., Akatov V. S., Grobova M. E. Microspectrofluorimeter for measuring endocellular pH (micro pH)”. Devices and equipment for studies in the field of physical-and-chemical biology and biotechnology. Pushchino, 1990. P. 8-14).\nThe cells at a temperature of 37° C. were colored within 5 minutes with 5.0 mkM PDA that before the colouring was prepared from a 10.0 mM solution in acetone by dilution for 30 minutes in a phosphatic buffer to 0.1 mM or 2.0 mkM 1.0 mM solution BCECF-AM in DMSO.\nThe two-wave method of determining pHi was used based on the ratio intensities of fluorescence of the cells on two wavelengths (Akatov V. S. et all), “Endocellular pH and substrate dependence of proliferation of fibroblasts of Chinese hamster, Cytology, 1991, 33 (7), p. 86-94). The fluorescence was excited by light at λ=490 nm, the emission was recorded simultaneously with two photomultipliers on wavelengths λ=535 nm and λ=570 nm. The K-ratio of the fluorescence on two wavelengths was determined with a deduction of the background fluorescence of the medium near the investigated cells for 40-60 individual cells, which are then averaged taking into account the measurement error. A thermostatically controlled table was used that allowed measurements to be conducted at a temperature of 37° C. An account was taken for the photodynamic damage of the pigmented cells during-long-time continuous illumination by excited light. The readings were taken from a section of the preparation exposed to light for not more than 5 minutes.\nThe calibration curves for determining the absolute pHi values by magnitude K were constructed using the Thomas technique (Thomas J. A., Bushbaum R. N., Zimniak A. w Racker E. “Intracellular pH measurements in Ehrlich ascites tumor cells utilizing spectroscopic probe generated in situ”, Biochemistry, 1979, v. 18, p. 2210-2218), for which case the pigmented cells treated for 5-10 minutes with carboxyacidic nigericyn (Calbiochem) at a concentration of 5-10 mkg/ml was placed in a solution with a high content of potassium—130 mM KCl, 1.0 mM MgCl2, 20.0 mM of HEPES) and with pH values from 6.2 to 7.6. The K values were measured in the media with different pH assuming that pHi of the cells equals to the pH of the medium due to the action of nigericyn, which exchanges potassium ions for protons and at a high content of potassium in the medium counterbalances the pH of the medium and cells. Calibration curves were used based on the fluorescence of same medium with addition of 5.0 mkM of fluorescence or BCECF were used to the control the stability of the of the instrument readings.\nThe correctness of the technique was confirmed in the experiments on measurements of pH values of cells treated with protonofor monencine raising pH of the cells due to replacement of sodium ions by protons, and by determining the dependence of the change of pHi on the change of the pH of the medium. […]"}, "[2]": {"test_system": "embyronic fibroblasts of mouse NIH-3T3", "details": "1-5 mkM; 15-20 minutes; cells of mice NSO and NIH-3T3; cited from earlier work"}}}
{"smiles": "CC[C@@]1([C@@H]2O[C@@H]([C@H]3O[C@@](O)(CO)[C@H](C)C[C@@H]3C)C[C@@H]2C)CC[C@H]([C@]2(C)CC[C@]3(C[C@H](O)[C@@H](C)[C@@H]([C@@H](C)[C@@H](OC)[C@H](C)C(=O)O)O3)O2)O1", "note": "[monensine, reference compound]", "values": [{"measurement": "rise of pHi", "setting": "[1]", "result": 0.12, "unit": "pH unit"}, {"measurement": "increase of pHi", "setting": "[2]", "result": 0.2, "unit": "unit"}]}
